The source of these data is patent US6822112B1, “Prostaglandin derivatives” (Taisho Pharmaceutical Co., Ltd., priority 1999, dated 2004).

Molecules are shown by their SMILES.

For this assay, the system named is EBTr [NBL-4] cell derived from bovine embryonic trachea. The assay is described as follows: Measurement of cAMP production promoting action in EBTr [NBL-4] cell. The assay is classed as cell-based. To be noted: 1 × 10^−9 M concentration of compound added; EBTr [NBL-4] cells, 15 minutes with 0.5 mM 3-isobutyl-1-methylxanthine; cAMP EIA. As to the method:
Measurement of cAMP production promoting action in EBTr [NBL-4] cell derived from bovine embryonic trachea
According to the method of Ito et al. in Br. J. Pharmacol., vol. 99, page 13 (1990), the following test was carried out.
That is, EBTr [NBL-4] cells derived from bovine embryonic trachea (produced by Dainippon Pharmaceutical Co.) were inoculated on 24-well plates (6×10^4 cells/well) (manufactured by Sumitomo Bakelite Co.), and cultured on a growth medium (MEM Earle's medium including 10% calf serum, 2 mM glutamine and non-essential amino acids) for 48 hours, followed by cultivation on 0.5 ml of a growth medium including the test compound and 0.5 mM 3-isobutyl-1-methylxanthine for 15 minutes. After the completion of the reaction, the cells were washed with a phosphate buffer (not including Ca^++ and Mg^++), 0.6 ml of 65% aqueous ethanol solution was added, followed by allowing to stand at 4° C. for an hour, and the resulting cAMP was extracted. After evaporation of the solvent by a centrifugal evaporator, the amount of cAMP was measured by using a cAMP EIA System (manufactured by Amersham Co.).

Turning to `O=C(O)c1ccc(CCCC2C(Cl)CC(O)C2C#CC(O)C2CCCCC2)cc1` (stereo not drawn) [Compound 35, 9-Deoxy-9β-chloro-2,3,4,16,17,18,19,20-octanor-1,5-inter-p-phenylene-15-cyclohexyl-13,14-didehydro-PGF1α], the “cAMP production promoting action (percent to PGD2)” value was 150 percent to PGD2.
